{"source": "patent US5739166A", "about": "“Substituted terphenyl compounds for the treatment of inflammation” (G.D. Searle & Co., priority 1994, dated 1998)", "system": "hyperalgesic foot withdrawal", "experiment": "Rat Carrageenan-induced Analgesia Test", "assay_type": "in vivo, Male Sprague-Dawley rats", "details": "oral, assay performed at 50 mg/kg body weight, 3 hours after carrageenan", "description": "Male Sprague-Dawley rats were treated as previously described for the Carrageenan Foot Pad Edema test. Three hours after the injection of the carrageenan, the rats were placed in a special plexiglass container with a transparent floor having a high intensity lamp as a radiant heat source; positionable under the floor. After an initial twenty minute period, thermal stimulation was begun on either the injected foot or on the contralateral uninjected foot. A photoelectric cell turned off the lamp and timer when light was interrupted by paw withdrawal. The time until the rat withdraws its foot was then measured. The withdrawal latency in seconds was determined for the control and drug-treated groups, and percent inhibition of the hyperalgesic foot withdrawal determined.", "data": [{"molecule": "COc1ccc(-c2cc(F)c(F)cc2-c2ccc(S(N)(=O)=O)cc2)cc1Cl", "note": "[Example 20, 4-[2-(3-chloro-4-methoxyphenyl)-4,5-difluorophenyl]benzenesulfonamide]", "values": [{"measurement": "ANALGESIA % Inhibition", "value": 22, "unit": "%"}]}]}
